Read-outs that look alike come from different tables or passages of the source.
Columns and labels:
HIV-1 = conditions: cited from earlier work
HTLV-1 = assay: Alu-qPCR of integrated provirus in HTLV-1 infected Jurkat cells; type: cell-based; conditions: normalized to GAPDH
Protocol: The HTLV-1 cell-to-cell infection was performed as previously described; Jurkat T cells were counted and diluted in complete RPMI to a final concentration of 0.25 × 10^6 cells/ml and pre-treated with INSTI drugs (final concentration ranging from 0.2 pM to 2 μM) or DMSO as a control for 24 h. MT-2 cells were resuspended in RPMI at a concentration of 2 × 10^6 cells/ml and subjected to a nonlethal γ-radiation dose of 400 Gy. Cells were resuspended at a concentration of 2 × 10^6 cells/ml in serum-free RPMI supplemented with the corresponding INSTI drug. Co-culture of 0.5 × 10^6 for each cell line was carried out for 16 h, after which cells were washed in PBS and resuspended in 1 ml of depletion buffer (PBS, 0.1% FBS and 2 mM EGTA). MT-2 cells were depleted from the culture by means of anti-CD25 magnetic beads (DynabeadsTM CD25, Thermo Fisher). Depletion efficiency was confirmed via flow cytometry as described previously. Jurkat cells were cultured for 2 weeks in complete RPMI supplemented with the drugs and genomic DNA was extracted (DNeasy kit, Qiagen) and stored at −20 °C for subsequent analysis. All the experiments were done in triplicate.
The PVL was measured as previously described[9],[53],[54]. Jurkat genomic DNA was quantified and diluted to a concentration of 5 ng/μL. Real-time qPCR analysis were conducted on 20 ng of gDNA to measure the level of HTLV-1 tax and gapdh genes (Supplementary Table 5). For the standard curve, the gDNA from an HTLV-1 naturally infected T-cell clone (clone 11.50, courtesy of professor Charles Bangham), which has one copy of tax and two of gapdh, was used. The integrated provirus copy number was calculated as follows: (tax copy numbers)/(2×gapdh copy number)[53], and normalised to the DMSO-treated control which was set to 100%. The PVL data were fitted to a dose–response curve in Prism 7 and the EC50 was calculated. Alu-PCR was performed as previously described in ref. [55]. In brief, the first PCR reaction was done with Phusion polymerase starting from 80 ng of gDNA using the ALU-specific primers (Alu-F/Gag-R). The nested PCR was run diluting the amplificated product 1:50. The reaction was done as a qPCR using Gag-specific primers (Gag-R/Gag-F) and the Luna SYBR dye reaction mix (New England Biolabs). The integrated provirus copy numbers were normalised to GAPDH and Jurkat cells treated with DMSO and infected with HTLV-1 were set to 100%. Experiments were done in triplicate. […]
Supplementary Figure 6 | Integrated provirus was quantified by Alu-qPCR.
Values were normalized to GAPDH. Uninfected represents uninfected Jurkat cells, acting as negative control. Condition without any drug present (DMSO) was set as 100%. Mean values and standard deviations are shown for n = three biologically independent experiments. P-values were calculated with respect to the DMSO control using the unpaired t-test with Welch’s correction in Prism 9. P-values are two-sided.

recombinant HTLV-1 IN = biological target: T1, recombinant HTLV-1 IN (Human T-cell leukemia virus 1, UniProt P03362); assay: In vitro integration strand transfer assay with HTLV-1 IN; type: biochemical; conditions: for HTLV-1 IN strand transfer activity (No drug = 100): INSTI at 634 nM
T1 construct: made in house
In short: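 Recombinant HTLV-1 IN (4 μg) with annealed 3′-processed LTR donor DNA (0.53 μM) preincubated 15 min RT with compound (screen at 634 nM) in PIPES pH 6.0, NaCl, MgCl2, ZnCl2, DTT; supercoiled plasmid target added, 1 h 37 °C. Concerted integration product quantified by agarose-gel densitometry; IC50 from dose–response fits, triplicate.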

[1] = Replicate 1, read-out: HTLV-1 IN strand transfer IC50
[2] = Replicate 2, read-out: HTLV-1 IN strand transfer IC50
[3] = Replicate 3, read-out: HTLV-1 IN strand transfer IC50
[4] = integrase strand-transfer drug titration, n = 3, read-out: HTLV-1 IC50 ± stdev
[5] = previously reported, read-out: EC50, infection by wild-type HIV-1

T1 sequence (P03362 1168-1462): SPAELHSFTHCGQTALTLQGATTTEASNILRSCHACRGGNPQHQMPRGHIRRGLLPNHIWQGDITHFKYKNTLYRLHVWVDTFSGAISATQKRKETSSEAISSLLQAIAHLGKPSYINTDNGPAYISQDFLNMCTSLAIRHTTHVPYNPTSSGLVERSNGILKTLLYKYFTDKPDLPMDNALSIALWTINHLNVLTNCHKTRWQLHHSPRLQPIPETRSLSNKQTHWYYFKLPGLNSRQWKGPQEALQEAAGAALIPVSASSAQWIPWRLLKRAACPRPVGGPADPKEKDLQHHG

For `Nc1c(C(=O)NCc2ccc(F)cc2F)c(=O)n(O)c2ncc(CCS(=O)(=O)c3ccccc3)cc12` [XZ446, 4-amino-N-(2,4-difluorobenzyl)-1-hydroxy-2-oxo-6-(2-(phenylsulfonyl)ethyl)-1,2-dihydro-1,8-naphthyridine-3-carboxamide], the EC50 (HIV-1; previously reported, read-out: EC50, inhibitory potency for HIV-1) is listed as 2 ± 0.1 nM, the “Integrated provirus by Alu-qPCR (DMSO = 100%)” value (HTLV-1; Replicate 1) is listed as 13.9354% and the “Integrated provirus by Alu-qPCR (DMSO = 100%)” value (HTLV-1; Replicate 2) is listed as 1.128%. For the same compound, the “Integrated provirus by Alu-qPCR (DMSO = 100%)” value (HTLV-1; Replicate 3) was 3.891%, the “HTLV-1 IN strand transfer activity (No drug = 100)” value (recombinant HTLV-1 IN; Replicate 1) was 11.4924% and the “HTLV-1 IN strand transfer activity (No drug = 100)” value (recombinant HTLV-1 IN; Replicate 2) was 20.4545%. For the same compound, the “HTLV-1 IN strand transfer activity (No drug = 100)” value (recombinant HTLV-1 IN; Replicate 3) was 15.1675%, the IC50 (recombinant HTLV-1 IN; [1]) was 143 nM and the IC50 (recombinant HTLV-1 IN; [2]) was 85 nM. The IC50 (recombinant HTLV-1 IN; [3]) was 126 nM and the IC50 (recombinant HTLV-1 IN; [4]) was 115 ± 9.5 nM.
In the case of `Nc1c(C(=O)NCc2ccc(F)cc2F)c(=O)n(O)c2ncc(CCC(=O)NCCO)cc12` [XZ448, 4-amino-N-(2,4-difluorobenzyl)-1-hydroxy-6-(3-((2-hydroxyethyl)amino)-3-oxopropyl)-2-oxo-1,2-dihydro-1,8-naphthyridine-3-carboxamide], the EC50 (HIV-1; [5]) is given as 263 ± 52 nM, the “Integrated provirus by Alu-qPCR (DMSO = 100%)” value (HTLV-1; Replicate 1) is given as 25.215% and the “Integrated provirus by Alu-qPCR (DMSO = 100%)” value (HTLV-1; Replicate 2) is given as 64.5778%. For the same compound, the “Integrated provirus by Alu-qPCR (DMSO = 100%)” value (HTLV-1; Replicate 3) was 27.0471%, the “HTLV-1 IN strand transfer activity (No drug = 100)” value (recombinant HTLV-1 IN; Replicate 1) was 5.498% and the “HTLV-1 IN strand transfer activity (No drug = 100)” value (recombinant HTLV-1 IN; Replicate 2) was 23.674%. For the same compound, the “HTLV-1 IN strand transfer activity (No drug = 100)” value (recombinant HTLV-1 IN; Replicate 3) was 16.1231%, the IC50 (recombinant HTLV-1 IN; [1]) was 99 nM and the IC50 (recombinant HTLV-1 IN; [2]) was 227 nM. The IC50 (recombinant HTLV-1 IN; [3]) was 108 nM and the IC50 (recombinant HTLV-1 IN; [4]) was 132 ± 29.7 nM.
In the case of `CN(C)C(=O)CCc1cnc2c(c1)c(N)c(C(=O)NCc1ccc(F)cc1F)c(=O)n2O` [XZ450, 4-amino-N-(2,4-difluorobenzyl)-6-(3-(dimethylamino)-3-oxopropyl)-1-hydroxy-2-oxo-1,2-dihydro-1,8-naphthyridine-3-carboxamide], the EC50 (HIV-1; [5]) is given as 5 ± 1.3 nM, the “Integrated provirus by Alu-qPCR (DMSO = 100%)” value (HTLV-1; Replicate 1) is given as 0.2536% and the “Integrated provirus by Alu-qPCR (DMSO = 100%)” value (HTLV-1; Replicate 2) is given as 0.5264%. The “Integrated provirus by Alu-qPCR (DMSO = 100%)” value (HTLV-1; Replicate 3) was 0.2229%, the “HTLV-1 IN strand transfer activity (No drug = 100)” value (recombinant HTLV-1 IN; Replicate 1) was 10.2814% and the “HTLV-1 IN strand transfer activity (No drug = 100)” value (recombinant HTLV-1 IN; Replicate 2) was 19.561%. For the same compound, the “HTLV-1 IN strand transfer activity (No drug = 100)” value (recombinant HTLV-1 IN; Replicate 3) was 9.5729%, the IC50 (recombinant HTLV-1 IN; [1]) was 115 nM and the IC50 (recombinant HTLV-1 IN; [2]) was 180 nM. It also gave an IC50 (recombinant HTLV-1 IN; [3]) of 76 nM and an IC50 (recombinant HTLV-1 IN; [4]) of 120 ± 36.1 nM.
In the case of `CC(C)n1c(C(=O)N(C)C)c2c(c(O)c1=O)C(=O)N(Cc1ccc(F)c(Cl)c1)CC2` [XZ236, 6-(3-chloro-4-fluorobenzyl)-4-hydroxy-2-isopropyl-N,N-dimethyl-3,5-dioxo-2,3,5,6,7,8-hexahydro-2,6-naphthyridine-1-carboxamide, reference compound], the EC50 (HIV-1; HIV-1 infection model, supplementary ref 7, read-out: HIV-1 EC50 ± stdev) is given as 17 ± 4 nM, the “Integrated provirus by Alu-qPCR (DMSO = 100%)” value (HTLV-1; Replicate 1) is given as 4.2364% and the “Integrated provirus by Alu-qPCR (DMSO = 100%)” value (HTLV-1; Replicate 2) is given as 4.296%. The “Integrated provirus by Alu-qPCR (DMSO = 100%)” value (HTLV-1; Replicate 3) was 2.243%, the “HTLV-1 IN strand transfer activity (No drug = 100)” value (recombinant HTLV-1 IN; Replicate 1) was 9.7581% and the “HTLV-1 IN strand transfer activity (No drug = 100)” value (recombinant HTLV-1 IN; Replicate 2) was 22.4849%. The “HTLV-1 IN strand transfer activity (No drug = 100)” value (recombinant HTLV-1 IN; Replicate 3) was 26.0036%, the IC50 (recombinant HTLV-1 IN; [1]) was 130 nM and the IC50 (recombinant HTLV-1 IN; [2]) was 504 nM. The IC50 (recombinant HTLV-1 IN; [3]) was 301 nM, the “inhibition of HTLV-1 IN in the screen compared with RAL” value (recombinant HTLV-1 IN; each compound at 634 nM) was “outperformed RAL” and the IC50 (recombinant HTLV-1 IN; [4]) was 322 ± 121 nM.
For `Nc1c(C(=O)NCc2ccc(F)cc2F)c(=O)n(O)c2ncc(CCCO)cc12` [XZ423, 4-amino-N-(2,4-difluorobenzyl)-1-hydroxy-6-(3-hydroxypropyl)-2-oxo-1,2-dihydro-1,8-naphthyridine-3-carboxamide], the EC50 (HIV-1; HIV-1 infection model, supplementary ref 1, read-out: HIV-1 EC50 ± stdev) is listed as 3.1 ± 2 nM, the “Integrated provirus by Alu-qPCR (DMSO = 100%)” value (HTLV-1; Replicate 1) is listed as 2.519% and the “Integrated provirus by Alu-qPCR (DMSO = 100%)” value (HTLV-1; Replicate 2) is listed as 0.166%. The “Integrated provirus by Alu-qPCR (DMSO = 100%)” value (HTLV-1; Replicate 3) was 0.06882%, the “HTLV-1 IN strand transfer activity (No drug = 100)” value (recombinant HTLV-1 IN; Replicate 1) was 5.722% and the “HTLV-1 IN strand transfer activity (No drug = 100)” value (recombinant HTLV-1 IN; Replicate 2) was 15.1459%. For the same compound, the “HTLV-1 IN strand transfer activity (No drug = 100)” value (recombinant HTLV-1 IN; Replicate 3) was 14.6599%, the IC50 (recombinant HTLV-1 IN; [1]) was 144 nM and the IC50 (recombinant HTLV-1 IN; [2]) was 185 nM. The IC50 (recombinant HTLV-1 IN; [3]) was 155 nM and the IC50 (recombinant HTLV-1 IN; [4]) was 155 ± 33.5 nM.

From PMC8370991, “Structural basis for the inhibition of HTLV-1 integration inferred from cryo-EM deltaretroviral intasome structures” (Nature Communications, 2021)
